Experimental data published in patent US11358952B2, “Substituted 4-aminoisoindoline-1,3-dione compounds, compositions thereof, and methods of treatment therewith” (Celgene Corporation, priority 2018, dated 2022).

Test system: SU-DHL-4 cell line
Experiment: SU-DHL-4 cell proliferation assay (Cell Titer-Glo viability)
Format: cell-based
Settings: Homo sapiens; cell viability IC50 activity level, DLBCL cell line SU-DHL-4, 120 hours post-treatment; read-out: SU-DHL-4 Act
How it was run: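 SU-DHL-4 cells (500/well, RPMI-1640 + 10% FBS) exposed to 20-point compound dilutions (0.5 nM–10 μM, 0.1% DMSO) for 120 h at 37°C, 5% CO2. Viability measured by Cell Titer-Glo luminescence at t0 and at 120 h. IC50 is the concentration giving 50% of DMSO control, from a four-parameter logistic fit.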

| IC50 [nM] | SMILES |
| --- | --- |
| < 200 | O=C1CCC(N2C(=O)c3cccc(NCc4ccc(CN5CCC6(CCCO6)CC5)cc4F)c3C2=O)C(=O)N1 (centres unmarked) [Cpd 144, 4-(4-(1-oxa-8-azaspiro[4.5]decan-8-ylmethyl)-2-fluorobenzylamino)-2-(2,6-dioxopiperidin-3-yl)isoindoline-1,3-dione] |
| 200 to 500 | O=C1CCC(N2C(=O)c3cccc(NCc4ccc(CN5CCC6(CCCO6)CC5)c(F)c4)c3C2=O)C(=O)N1 (centres unmarked) [Cpd 147, 4-(4-(1-oxa-8-azaspiro[4.5]decan-8-ylmethyl)-3-fluorobenzylamino)-2-(2,6-dioxopiperidin-3-yl)isoindoline-1,3-dione] |
| < 200 | CC1(C)CCC2(CCN(Cc3ccc(CNc4cccc5c4C(=O)N(C4CCC(=O)NC4=O)C5=O)cc3F)CC2)O1 (centres unmarked) [Cpd 148, 4-(4-((2,2-dimethyl-1-oxa-8-azaspiro[4.5]decan-8-yl)methyl)-3-fluorobenzylamino)-2-(2,6-dioxopiperidin-3-yl)isoindoline-1,3-dione] |
| < 200 | NC(=O)c1ccc(N2CCN(Cc3ccc(CNc4cccc5c4C(=O)N(C4CCC(=O)NC4=O)C5=O)c(F)c3)CC2)nc1 (centres unmarked) [Cpd 149, 6-(4-(4-((2-(2,6-dioxopiperidin-3-yl)-1,3-dioxoisoindolin-4-ylamino)methyl)-3-fluorobenzyl)piperazin-1-yl)nicotinamide] |
| 501 to 750 | NC(=O)c1ccc(N2CCN(Cc3ccc(CNc4cccc5c4C(=O)N(C4CCC(=O)NC4=O)C5=O)cc3F)CC2)nc1 (centres unmarked) [Cpd 152, 6-(4-(4-((2-(2,6-dioxopiperidin-3-yl)-1,3-dioxoisoindolin-4-ylamino)methyl)-2-fluorobenzyl)piperazin-1-yl)nicotinamide] |
| 200 to 500 | O=C1CCC(N2C(=O)c3cccc(NCc4ccc(CN5CCOCC5)cc4F)c3C2=O)C(=O)N1 (centres unmarked) [Cpd 154, 2-(2,6-dioxopiperidin-3-yl)-4-(2-fluoro-4-(morpholinomethyl)benzylamino) isoindoline-1,3-dione] |
| 751 to 1000 | Cc1cc(CNc2cccc3c2C(=O)N(C2CCC(=O)NC2=O)C3=O)ccc1CN1CCOCC1 (centres unmarked) [Cpd 155, 2-(2,6-dioxopiperidin-3-yl)-4-(3-methyl-4-(morpholinomethyl)benzylamino) isoindoline-1,3-dione] |
| < 200 | CCOC1(C)CCN(Cc2ccc(CNc3cccc4c3C(=O)N(C3CCC(=O)NC3=O)C4=O)c(F)c2)CC1 (centres unmarked) [Cpd 158, 2-(2,6-dioxopiperidin-3-yl)-4-(4-((4-ethoxy-4-methylpiperidin-1-yl)methyl)-2-fluorobenzylamino)isoindoline-1,3-dione] |
| < 200 | CCOC1(C)CCN(Cc2ccc(CNc3cccc4c3C(=O)N(C3CCC(=O)NC3=O)C4=O)cc2F)CC1 (centres unmarked) [Cpd 159, 2-(2,6-dioxopiperidin-3-yl)-4-(4-((4-ethoxy-4-methylpiperidin-1-yl)methyl)-3-fluorobenzylamino)isoindoline-1,3-dione] |
| < 200 | CCS(=O)(=O)N1CCN(Cc2ccc(CNc3cccc4c3C(=O)N(C3CCC(=O)NC3=O)C4=O)c(F)c2)CC1 (centres unmarked) [Cpd 160, 2-(2,6-dioxopiperidin-3-yl)-4-(4-((4-(ethylsulfonyl)piperazin-1-yl)methyl)-2-fluorobenzylamino)isoindoline-1,3-dione] |
| 200 to 500 | O=C1CCC(N2C(=O)c3cccc(NCc4ccc(CN5CC6(CCC6)C5)c(F)c4)c3C2=O)C(=O)N1 (centres unmarked) [Cpd 162, 4-(4-(2-azaspiro[3.3]heptan-2-ylmethyl)-3-fluorobenzylamino)-2-(2,6-dioxopiperidin-3-yl)isoindoline-1,3-dione] |
| 200 to 500 | O=C1CCC(N2C(=O)c3cccc(NCc4ccc(CN5Cc6cccc(C(F)(F)F)c6C5)cc4)c3C2=O)C(=O)N1 (centres unmarked) [Cpd 164, 2-(2,6-dioxopiperidin-3-yl)-4-(4-((4-(trifluoromethyl)isoindolin-2-yl)methyl)benzylamino)isoindoline-1,3-dione] |
| < 200 | O=C1CCC(N2C(=O)c3cccc(NCc4ccc(CN5CC(c6ccccn6)C5)cc4F)c3C2=O)C(=O)N1 (centres unmarked) [Cpd 165, 2-(2,6-dioxopiperidin-3-yl)-4-(2-fluoro-4-((3-(pyridin-2-yl)azetidin-1-yl)methyl)benzylamino)isoindoline-1,3-dione] |
| < 200 | O=C1CCC(N2C(=O)c3cccc(NCc4ccc(CN5CCC(F)(c6ccccn6)CC5)cc4F)c3C2=O)C(=O)N1 (centres unmarked) [Cpd 168, 2-(2,6-dioxopiperidin-3-yl)-4-(2-fluoro-4-((4-fluoro-4-(pyridin-2-yl)piperidin-1-yl)methyl)benzylamino)isoindoline-1,3-dione] |
| < 200 | O=C1CCC(N2C(=O)c3cccc(NCc4ccc(CN5CC(N6CCCC6=O)C5)cc4F)c3C2=O)C(=O)N1 (centres unmarked) [Cpd 169, 2-(2,6-dioxopiperidin-3-yl)-4-(2-fluoro-4-((3-(2-oxopyrrolidin-1-yl)azetidin-1-yl)methyl)benzylamino)isoindoline-1,3-dione] |
| < 200 | O=C1CCC(N2C(=O)c3cccc(NCc4ccc(CN5CCC(N6CCCC6=O)CC5)cc4F)c3C2=O)C(=O)N1 (centres unmarked) [Cpd 170, 2-(2,6-dioxopiperidin-3-yl)-4-(2-fluoro-4-((4-(2-oxopyrrolidin-1-yl)piperidin-1-yl)methyl)benzylamino)isoindoline-1,3-dione] |
| < 200 | O=C1CCC(N2C(=O)c3cccc(NCc4ccc(CN5CCC(N6CCCS6(=O)=O)CC5)cc4F)c3C2=O)C(=O)N1 (centres unmarked) [Cpd 172, 4-((4-((4-(1,1-dioxidoisothiazolidin-2-yl)piperidin-1-yl)methyl)-2-fluorobenzyl)amino)-2-(2,6-dioxopiperidin-3-yl)isoindoline-1,3-dione] |

Continued, compound first:

| SMILES | IC50 [nM] |
| --- | --- |
| CC(C)(C)OC1CCN(Cc2ccc(CNc3cccc4c3C(=O)N(C3CCC(=O)NC3=O)C4=O)c(F)c2)CC1 (centres unmarked) [Cpd 143, 4-(4-((4-tert-butyoxypiperidin-1-yl)methyl)-2-fluorobenzylamino)-2-(2,6-dioxopiperidin-3-yl)isoindoline-1,3-dione] | < 200 |
| CC1(C)CCC2(CCN(Cc3ccc(CNc4cccc5c4C(=O)N(C4CCC(=O)NC4=O)C5=O)c(F)c3)CC2)O1 (centres unmarked) [Cpd 145, 4-(4-((2,2-dimethyl-1-oxa-8-azaspiro[4.5]decan-8-yl)methyl)-2-fluorobenzylamino)-2-(2,6-dioxopiperidin-3-yl)isoindoline-1,3-dione] | < 200 |
| CC(C)(C)OC1CCN(Cc2ccc(CNc3cccc4c3C(=O)N(C3CCC(=O)NC3=O)C4=O)cc2F)CC1 (centres unmarked) [Cpd 146, 4-(4-((4-tert-butoxypiperidin-1-yl)methyl)-3-fluorobenzylamino)-2-(2,6-dioxopiperidin-3-yl)isoindoline-1,3-dione] | < 200 |
| O=C1CCC(N2C(=O)c3cccc(NCc4ccc(CN5CCC6(CCNC6=O)CC5)cc4F)c3C2=O)C(=O)N1 (centres unmarked) [Cpd 150, 2-(2,6-dioxopiperidin-3-yl)-4-(2-fluoro-4-((1-oxo-2,8-diazaspiro[4.5]decan-8-yl)methyl)benzylamino)isoindoline-1,3-dione] | < 200 |
| CN1CCC2(CCN(Cc3ccc(CNc4cccc5c4C(=O)N(C4CCC(=O)NC4=O)C5=O)c(F)c3)CC2)C1=O (centres unmarked) [Cpd 151, 2-(2,6-dioxopiperidin-3-yl)-4-(2-fluoro-4-((2-methyl-1-oxo-2,8-diazaspiro[4.5]decan-8-yl)methyl)benzylamino)isoindoline-1,3-dione] | < 200 |
| CN1CCC2(CCN(Cc3ccc(CNc4cccc5c4C(=O)N(C4CCC(=O)NC4=O)C5=O)cc3F)CC2)C1=O (centres unmarked) [Cpd 153, 2-(2,6-dioxopiperidin-3-yl)-4-(3-fluoro-4-((2-methyl-1-oxo-2,8-diazaspior[4.5]decan-8-yl)methyl)benzylamino)isoindoline-1,3-dione] | 501 to 750 |
| CCC1(OC)CCN(Cc2ccc(CNc3cccc4c3C(=O)N(C3CCC(=O)NC3=O)C4=O)c(F)c2)CC1 (centres unmarked) [Cpd 156, 2-(2,6-dioxopiperidin-3-yl)-4-(4-((4-ethyl-4-methoxypiperidin-1-yl)methyl)-2-fluorobenzylamino)isoindoline-1,3-dione] | < 200 |
| CCC1(OC)CCN(Cc2ccc(CNc3cccc4c3C(=O)N(C3CCC(=O)NC3=O)C4=O)cc2F)CC1 (centres unmarked) [Cpd 157, 2-(2,6-dioxopiperidin-3-yl)-4-(4-((4-ethyl-4-methoxypiperidin-1-yl)methyl)-3-fluorobenzylamino)isoindoline-1,3-dione] | < 200 |
| CCS(=O)(=O)N1CCN(Cc2ccc(CNc3cccc4c3C(=O)N(C3CCC(=O)NC3=O)C4=O)cc2F)CC1 (centres unmarked) [Cpd 161, 2-(2,6-dioxopiperidin-3-yl)-4-(4-((4-(ethylsulfonyl)piperazin-1-yl)methyl)-3-fluorobenzylamino)isoindoline-1,3-dione] | < 200 |
| O=C1CCC(N2C(=O)c3cccc(NCc4ccc(CN5Cc6ccccc6C5)cc4)c3C2=O)C(=O)N1 (centres unmarked) [Cpd 163, 2-(2,6-dioxopiperidin-3-yl)-4-(4-(isoindolin-2-ylmethyl)benzylamino)isoindoline-1,3-dione] | < 200 |
| O=C1CCC(N2C(=O)c3cccc(NCc4ccc(CN5CCC(c6ccccn6)CC5)cc4F)c3C2=O)C(=O)N1 (centres unmarked) [Cpd 166] | < 200 |
| O=C1CCC(N2C(=O)c3cccc(NCc4ccc(CN5CCC(O)(c6ccccn6)CC5)cc4F)c3C2=O)C(=O)N1 (centres unmarked) [Cpd 167, 2-(2,6-dioxopiperidin-3-yl)-4-(2-fluoro-4-((4-hydroxy-4-(pyridin-2-yl)piperidin-1-yl)methyl)benzylamino)isoindoline-1,3-dione] | < 200 |
| O=C1CCC(N2C(=O)c3cccc(NCc4ccc(CN5CC(N6CCOCC6)C5)cc4F)c3C2=O)C(=O)N1 (centres unmarked) [Cpd 171, 2-(2,6-dioxopiperidin-3-yl)-4-(2-fluoro-4-((3-morpholinoazetidin-1-yl)methyl)benzylamino)isoindoline-1,3-dione] | < 200 |
| CCS(=O)(=O)C1CCN(Cc2ccc(CNc3cccc4c3C(=O)N(C3CCC(=O)NC3=O)C4=O)c(F)c2)CC1 (centres unmarked) [Cpd 173] | < 200 |
| CC(C)S(=O)(=O)C1CCN(Cc2ccc(CNc3cccc4c3C(=O)N(C3CCC(=O)NC3=O)C4=O)c(F)c2)CC1 (centres unmarked) [Cpd 174, 2-(2,6-dioxopiperidin-3-yl)-4-(2-fluoro-4-((4-(isopropylsulfonyl)piperidin-1-yl)methyl)benzylamino)isoindoline-1,3-dione] | < 200 |
